Patent US9988348B1, “Synthesis and antimicrobial use of a trithiocarbonate derivative” (KING SAUD UNIVERSITY, priority 2017, dated 2018)

How the values were obtained:
Assay in all cases: disk diffusion assay, inhibition zone
Assay type in all cases: cell-based
[1] = system: Aspergillus fumigatus AUMC 8794; details: Aspergillus fumigatus, AUMC8794, A. fumigatus, read-out: Inhibition zone diameter of standard antimicrobial agents
Protocol: (§1) To evaluate antimicrobial activity of the compound 4, synthesized in our laboratory as novel anti-bacterial and anti-fungal agents, the inhibition zone diameter (mm) and the minimal inhibitory concentration were determined according to (Andrews 2001; Hudzicki 2009). The test carried out on several clinical microorganisms included Gram positive bacteria (Staphylococcus aureus ATCC and Streptococcus mutans ATCC 35668), Gram negative bacteria (Escherichia coli ATCC 25922, Salmonella typhimurium ATCC 14028 and Neisseria meningitides ATCC 1302); yeasts (Candid albicans ATCC 60193, Cryptococcus neoformans Wild strain and Candida parapsilosus ATCC 22019) and molds (Aspergillus fumigatus AUMC 8794, Penicillum chrysogenum AUMC 9476 and Fusarium sp.)
(§2) The clinical microorganisms were cultivated at least three times on suitable culture medium and incubating conditions before susceptibility test. The concentration of microbial inoculation suspensions in sterile sodium chloride solution (0.89%) were adjusted to 0.65 at 620 nm by spectrophotometer. […]
(§3) After that, the disks were dried at 25° C. under sterile conditions by safety biological cabinet. A Mueller-Hinton agar (MHA) (Scharlau Microbiogy, Spain) and a potato dextrose agar (PDA) (Scharlau, Spain) were used to perform antibacterial and antifungal test respectively. The media were prepared according to manufacturer's guidelines. To prepare one liter of MHA and one liter of PDA, 21 grams of MHA and 39 grams of PDA were dissolved in one liter of sterile distilled water, followed by sterilization at 121° C. for 15 minutes by an autoclave (HL-321, Taiwan). The sterilized media were poured in sterile plastic Petri dishes at 50° C. The plates were allowed to let the medium solidify at room temperature. 0.1 ml of microbial inoculation suspensions were spread on dried surface of medium and were kept at 25° C. for 5-10 minutes. The compound 4 and standard antimicrobial drugs discs (Table 1) were dispensed on the surface of inoculated media. The tested bacteria and fungi were incubated at 37±1° C. for 19-22 hours and at 25±1 for 48-72 hours respectively. After the incubation, the diameter of inhibition zone (millimeter) resulting from the biological activity of compound were recorded.

[2] = system: Candid albicans ATCC 60193; details: Candida albicans, ATCC60193, C. albicans, read-out: Inhibition zone diameter of standard antimicrobial agents
Protocol: as §1, §2, §3

[3] = system: Candida parapsilosus ATCC 22019
Protocol: as §1, §2, §3

[4] = system: Cryptococcus neoformans Wild strain
Protocol: as §1, §2, §3

Fusarium sp. = details: read-out: Inhibition zone diameter of standard antimicrobial agents
Protocol: as §1, §2, §3

[5] = system: Penicillum chrysogenum AUMC 9476; details: read-out: Inhibition zone diameter of standard antimicrobial agents
Protocol: as §1, §2, §3

[6] = system: Neisseria meningitides ATCC 1302; details: Neisseria, ATCC1302, N. meningitides, read-out: Inhibition zone diameter of standard antimicrobial agents; for zone of inhibition at 10 µg/disc: 10 μg/disk
[7] = system: Escherichia coli ATCC 25922; details: Escherichia coli, ATCC25922, E. coli, read-out: Inhibition zone diameter of standard antimicrobial agents; for zone of inhibition at 10 µg/disc: 10 μg/disk
Protocol: as §1, §2, §3

[8] = system: Salmonella typhimurium ATCC 14028; details: Salmonella enterica, Sa. typhimurium, read-out: Inhibition zone diameter of standard antimicrobial agents; for zone of inhibition at 10 µg/disc: 10 μg/disk
Protocol: as §1, §2, §3

[9] = system: Staphylococcus aureus ATCC; details: Staphylococcus aureus, S. aureus, read-out: Inhibition zone diameter of standard antimicrobial agents; for zone of inhibition at 10 µg/disc: 10 μg/disk
Protocol: as §1, §2, §3

[10] = system: Streptococcus mutans ATCC 35668; details: Streptococcus mutans, ATCC35668, S. mutans, read-out: Inhibition zone diameter of standard antimicrobial agents; for zone of inhibition at 10 µg/disc: 10 μg/disk
Protocol: as §1, §2, §3

**Q.** Which results are given for `CC[C@H](C)C[C@H](C)CCCCCCCCC(=O)N[C@H]1C[C@@H](O)[C@@H](NCCN)NC(=O)[C@@H]2[C@@H](O)CCN2C(=O)[C@H]([C@H](O)CCN)NC(=O)[C@H]([C@H](O)[C@@H](O)c2ccc(O)cc2)NC(=O)[C@@H]2C[C@@H](O)CN2C(=O)[C@H]([C@@H](C)O)NC1=O` [Caspofungin]?
**A.** zone of inhibition at 10 µg/disc ([1]; 10 μg/disk): 20 mm; zone of inhibition at 10 µg/disc ([2]; 10 μg/disk): 20 mm; susceptibility of the strain to the standard drug, in words ([3]; C. parasilosus): resistant; zone of inhibition at 10 µg/disc ([3]; Candida, ATCC22019, C. parasilosus, 10 μg/disk, read-out: Inhibition zone diameter of standard antimicrobial agents): 0 mm; susceptibility of the strain to the standard drug, in words ([4]; Cr. neoformans strain used in this study): resistance; zone of inhibition at 10 µg/disc ([4]; Cryptococcus neoformans, C. neoformasn, 10 μg/disk, read-out: Inhibition zone diameter of standard antimicrobial agents): 0 mm; zone of inhibition at 10 µg/disc (Fusarium sp.; Fusarium sp., 10 μg/disk): 0 mm; zone of inhibition at 10 µg/disc ([5]; P. chrysoginum, 10 μg/disk): 0 mm

**Q.** Which results are given for `O=C(N[C@H](CO)[C@H](O)c1ccc([N+](=O)[O-])cc1)C(Cl)Cl` [Chloramphenicol]?
**A.** zone of inhibition at 30 µg/disc ([6]; 30 μg/disk): 34 mm; zone of inhibition at 30 µg/disc ([7]; 30 μg/disk): 40 mm; zone of inhibition at 30 µg/disc ([8]; 30 μg/disk): 30 mm; zone of inhibition at 30 µg/disc ([9]; 30 μg/disk): 30 mm; zone of inhibition at 30 µg/disc ([10]; 30 μg/disk): 20 mm

**Q.** `C[C@@H]1C[C@@H]([C@H](O)CC2CC(=O)NC(=O)C2)C(=O)[C@@H](C)C1` [Cycloheximide] was tested. Which zone of inhibition at 30 µg/disc ([1]; 30 μg/disk) did it give?
**A.** 22 mm

**Q.** What about the zone of inhibition at 30 µg/disc ([2]; 30 μg/disk) of the same molecule?
**A.** 0 mm

**Q.** And the “susceptibility of the strain to the standard drug, in words” value ([3]; C. parasilosus)?
**A.** resistant

**Q.** What about the zone of inhibition at 30 µg/disc ([3]; Candida, ATCC22019, read-out: Inhibition zone diameter of standard antimicrobial agents) of the same molecule?
**A.** 0 mm

**Q.** What about the zone of inhibition at 30 µg/disc ([4]; Cryptococcus neoformans, read-out: Inhibition zone diameter of standard antimicrobial agents) of the same molecule?
**A.** 32 mm

**Q.** What about the zone of inhibition at 30 µg/disc (Fusarium sp.; Fusarium) of the same molecule?
**A.** 30 mm

**Q.** And the zone of inhibition at 30 µg/disc [5]?
**A.** 23 mm

**Q.** `CC(=O)O[C@H]1C[C@@]2(C)[C@@H](C[C@@H](O)[C@H]3[C@@]4(C)CC[C@@H](O)[C@@H](C)[C@@H]4CC[C@@]32C)/C1=C(\CCC=C(C)C)C(=O)O` [Fusidic acid] was tested. Which zone of inhibition at 10 µg/disc [6] did it give?
**A.** 20 mm

**Q.** What about the zone of inhibition at 10 µg/disc [7] of the same molecule?
**A.** 0 mm

**Q.** What about the zone of inhibition at 10 µg/disc [8] of the same molecule?
**A.** 0 mm

**Q.** And the zone of inhibition at 10 µg/disc [9]?
**A.** 23 mm

**Q.** What about the zone of inhibition at 10 µg/disc [10] of the same molecule?
**A.** 10 mm

**Q.** With `NC[C@H]1O[C@H](O[C@H]2[C@H](O)[C@@H](O[C@H]3O[C@H](CO)[C@@H](O)[C@H](N)[C@H]3O)[C@H](N)C[C@@H]2N)[C@H](N)C[C@@H]1O` [Tobramycin] as the molecule, how does the zone of inhibition at 10 µg/disc [6] read?
**A.** 21 mm

**Q.** What about the zone of inhibition at 10 µg/disc [7] of the same molecule?
**A.** 20 mm

**Q.** And the zone of inhibition at 10 µg/disc [8]?
**A.** 14 mm

**Q.** And the zone of inhibition at 10 µg/disc [9]?
**A.** 14 mm

**Q.** What about the zone of inhibition at 10 µg/disc [10] of the same molecule?
**A.** 35 mm
